Results reported in patent publication US6642392B1 (priority 1997, dated 2003).
Like-named read-outs stand apart in the source and are kept apart here.

What was measured:
Type in all cases: in vivo
[1] = system: Puccinia recondita; assay: Test B: wheat leaf rust, preventive spray on wheat seedlings; settings: for Test B disease control rating: wheat leaf rust; for Test B disease control rating (100 = 100% disease control, 0 = no disease control): wheat seedlings sprayed to run-off, inoculated the following day, rating relative to controls, unmarked compounds (standard test rate)
Method in brief: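 Preventive test: P. recondita spores were applied one day after a run-off spray of compound suspension on wheat seedlings. Plants had 24 h at 20 °C in saturated air plus 6 days in a 20 °C growth chamber. Scoring is % disease control (100 = full) relative to controls.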

[2] = system: Eiysiphe graminis f. sp. tritici; assay: Test A: wheat powdery mildew, preventive spray on wheat seedlings; settings: for Test A disease control rating: wheat powdery mildew; for Test A disease control rating (100 = 100% disease control, 0 = no disease control): wheat seedlings sprayed to run-off, inoculated the following day, rating relative to controls, unmarked compounds (standard test rate)
Method in brief: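 Preventive test: seedlings inoculated with powdery mildew spores one day after run-off spraying of a suspension. Ratings after 7 days in a 20° C growth chamber express percent disease control versus controls.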

[3] = system: Botrytis cinerea; assay: Test E: gray mold, preventive spray on cucumber seedlings; settings: for Test E disease control rating: gray mold on cucumber; for Test E disease control rating (100 = 100% disease control, 0 = no disease control): cucumber seedlings sprayed to run-off, inoculated the following day, rating relative to controls, unmarked compounds (standard test rate)
Method in brief: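 Preventive spray on cucumber seedlings used a suspension (3% acetone, 250 ppm Trem 014), applied to run-off one day before inoculation with Botrytis cinerea spores. Plants were held 48 h at 20° C in saturated air, then 5 days at 20° C. Percent disease control was scored relative to untreated plants.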

[4] = system: Phytophthora infestans; settings: for Test D disease control rating: tomato late blight; for Test D disease control rating (100 = 100% disease control, 0 = no disease control): tomato seedlings sprayed to run-off, inoculated the following day, rating relative to controls, unmarked compounds (standard test rate)
[5] = system: Pyricularia oryzae; settings: for Test C disease control rating: rice blast; for Test C disease control rating (100 = 100% disease control, 0 = no disease control): rice seedlings sprayed to run-off, inoculated the following day, rating relative to controls, unmarked compounds (standard test rate)
[6] = 100 = 100% disease control, 0 = no control, unmarked entries (standard test concentration)
[7] = 100 = 100% disease control, 0 = no control relative to controls, unmarked entries (standard test concentration)

| Compound | Test B disease control rating ([1]; tested at 40 ppm) [%] | Test A disease control rating ([2]; tested at 40 ppm) [%] | Test E disease control rating ([3]; tested at 40 ppm) [%] | Test D disease control rating ([4]; tested at 40 ppm) [%] | Test C disease control rating ([5]; tested at 40 ppm) [%] | Test B disease control rating [1, 6] [%] | Test A disease control rating [2, 7] [%] | Test E disease control rating [3, 6] [%] | Test D disease control rating [4, 6] [%] | Test C disease control rating [5, 6] [%] | further results |
| --- | --- | --- | --- | --- | --- | --- | --- | --- | --- | --- | --- |
| CCC1(C(=O)NC(C)COc2cc(F)ccc2Br)C(C)C1(Cl)Cl (stereo not shown) [compound 125] | 0 | 90 | 0 | 0 | 99 | – | – | – | – | – | – |
| CCC1(C(=O)NC(C)COc2cc(Cl)ccc2Cl)C(C)C1(Cl)Cl (stereo not shown) [compound 113] | 0 | 0 | 0 | 19 | 97 | – | – | – | – | – | – |
| CCC1(C(=O)NC(C)COc2ccc(Cl)cc2Cl)C(C)C1(Cl)Cl (stereo not shown) [compound 112] | 0 | 71 | 0 | 0 | 0 | – | – | – | – | – | – |
| C[C@H](COc1ccc(F)c(Cl)c1)NC(=O)C(C#N)C(C)(C)C (single isomer, unassigned) [183a] | – | – | – | – | – | 28 | 0 | 0 | 35 | 86 | – |
| C[C@H](COc1cccc(I)c1)NC(=O)C(C#N)C(C)(C)C (single isomer, unassigned) [12b] | – | – | – | – | – | 0 | 77 | 0 | 68 | 94 | – |
| CCC1(C(=O)NC(C)COc2ccccc2C(C)(C)C)C(C)C1(Cl)Cl (stereo not shown) [compound 100] | 0 | 52 | 0 | 0 | 0 | – | – | – | – | – | – |
| CCC1(C(=O)NC(C)C=Cc2cc(F)ccc2F)C(C)C1(Cl)Cl (stereo not shown) [267b] | – | – | – | – | – | – | – | – | – | – | Test B disease control rating (100 = 100% disease control, 0 = no disease control) [1]: 0%; Test A disease control rating (100 = 100% disease control, 0 = no disease control) [2]: 92%; Test E disease control rating (100 = 100% disease control, 0 = no disease control) [3]: 55%; Test D disease control rating (100 = 100% disease control, 0 = no disease control) [4]: 0%; Test C disease control rating (100 = 100% disease control, 0 = no disease control) [5]: 100% |
| CCC1(C(=O)NC(C)COn2cc(Br)cc2C#N)C(C)C1(Cl)Cl (mixture of isomers) [compound 137] | – | – | – | – | – | 0 | 0 | 0 | 0 | 53 | – |
| CCC1(C(=O)NC(C)COc2ccc(F)cc2F)C(C)C1(Cl)Cl (stereo not shown) [compound 106] | 0 | 84 | 0 | 19 | 97 | – | – | – | – | – | – |
| CCC1(C(=O)NC(C)COc2ccc(F)cc2)C(C)C1(Cl)Cl (mixture of isomers) [80b] | 0 | 83 | 0 | 0 | 97 | – | – | – | – | – | – |
| CCC1(C(=O)NC(C)COc2c(F)ccc(F)c2F)C(C)C1(Cl)Cl (stereo not shown) [compound 233] | – | – | – | – | – | – | – | – | – | – | Test B disease control rating (100 = 100% disease control, 0 = no disease control) [1]: 0%; Test A disease control rating (100 = 100% disease control, 0 = no disease control) [2]: 62%; Test E disease control rating (100 = 100% disease control, 0 = no disease control) [3]: 6%; Test D disease control rating (100 = 100% disease control, 0 = no disease control) [4]: 9%; Test C disease control rating (100 = 100% disease control, 0 = no disease control) [5]: 94% |
| C[C@H](COc1cccc(I)c1)NC(=O)C(C#N)C(C)(C)C (single isomer, unassigned) [12a] | – | – | – | – | – | 68 | 86 | 0 | 0 | 91 | – |
| CCC1(C(=O)NC(C)COc2ccc(F)cc2)C(C)C1(Cl)Cl (mixture of isomers) [80a] | 0 | 0 | 0 | 20 | 86 | – | – | – | – | – | – |
| CC(COc1cccc(Cl)c1C#N)NC(=O)C(C#N)C(C)C(C)(C)C (mixture of isomers) [compound 64] | – | – | – | – | – | 0 | 0 | 0 | 2 | 53 | – |
| C=CCc1cc(C)ccc1OCC(C)NC(=O)C(C#N)C(C)(C)C (mixture of isomers) [compound 185] | – | – | – | – | – | 28 | 0 | 45 | 9 | 86 | – |
| CC(COc1ccccc1C(F)(F)F)NC(=O)C(C#N)C(C)(C)C (mixture of isomers) [17b] | – | – | – | – | – | 28 | 38 | 0 | 0 | 100 | – |
| CC(COc1ccccc1F)NC(=O)C(C#N)C(C)(C)C (mixture of isomers) [2a] | – | – | – | – | – | 0 | 0 | 55 | 0 | 0 | – |
| CC(COc1cc(F)c(F)cc1C#N)NC(=O)C(C#N)C(C)(C)C (mixture of isomers) [compound 207] | – | – | – | – | – | 0 | 0 | 0 | 0 | 0 | – |
| C[C@H](COc1c(Cl)ccc(Cl)c1Cl)NC(=O)C(C#N)C(C)(C)C (single isomer, unassigned) [171a] | – | – | – | – | – | 0 | 0 | 0 | 0 | 86 | – |
| CCC1(C(=O)NC(C)COc2ccc(Cl)c(Cl)c2Cl)C(C)C1(Cl)Cl (stereo not shown) [compound 243] | – | – | – | – | – | – | – | – | – | – | Test B disease control rating (100 = 100% disease control, 0 = no disease control) [1]: 0%; Test A disease control rating (100 = 100% disease control, 0 = no disease control) [2]: 38%; Test E disease control rating (100 = 100% disease control, 0 = no disease control) [3]: 0%; Test D disease control rating (100 = 100% disease control, 0 = no disease control) [4]: 74%; Test C disease control rating (100 = 100% disease control, 0 = no disease control) [5]: 74% |
| CC(C)(C)C(C#N)C(=O)NC/C=C/c1cccc(Br)c1 (racemic) [compound 272] | – | – | – | – | – | – | – | – | – | – | Test B disease control rating (100 = 100% disease control, 0 = no disease control) [1]: 0%; Test A disease control rating (100 = 100% disease control, 0 = no disease control) [2]: 76%; Test E disease control rating (100 = 100% disease control, 0 = no disease control) [3]: 0%; Test D disease control rating (100 = 100% disease control, 0 = no disease control) [4]: 63%; Test C disease control rating (100 = 100% disease control, 0 = no disease control) [5]: 53% |
| CCC1(C(=O)NC(C)COc2c(F)cc(F)cc2F)C(C)C1(Cl)Cl (stereo not shown) [compound 237] | – | – | – | – | – | – | – | – | – | – | Test B disease control rating (100 = 100% disease control, 0 = no disease control) [1]: 0%; Test A disease control rating (100 = 100% disease control, 0 = no disease control) [2]: 62%; Test E disease control rating (100 = 100% disease control, 0 = no disease control) [3]: 0%; Test D disease control rating (100 = 100% disease control, 0 = no disease control) [4]: 9%; Test C disease control rating (100 = 100% disease control, 0 = no disease control) [5]: 53% |
| C#CC(C)(C=C)C(C#N)C(=O)NC(C)COc1cc(F)ccc1F (mixture of isomers) [compound 301] | – | – | – | – | – | – | – | – | – | – | Test B disease control rating (100 = 100% disease control, 0 = no disease control) [1]: 0%; Test A disease control rating (100 = 100% disease control, 0 = no disease control) [2]: 62%; Test E disease control rating (100 = 100% disease control, 0 = no disease control) [3]: 0%; Test D disease control rating (100 = 100% disease control, 0 = no disease control) [4]: 24%; Test C disease control rating (100 = 100% disease control, 0 = no disease control) [5]: 100% |
